This is an account of results in patent publication US6503934B2, “Substituted thiadiazolesulfonamides” (Aventis Pharma Deutschland GmbH, priority 1998, dated 2003).

The assay deals with release of IL-1β. Put plainly: Inhibition of LPS-induced IL-1β release from isolated human mononuclear cells (enzyme immunoassay). Format: cell-based. To be noted: human mononuclear cells from citrate blood, lipopolysaccharide (Salmonella abortus equi) induced, 37° C. for 20 hours, IL-1β in supernatant; seven concentrations. The method, then:
The mononuclear cells were concentrated from freshly obtained human citrate blood by known standard processes. See, e.g., Tiku et al., J. Immunol. 136/10 (1986) 3677.
15 ml of Lymphoprep® (Molter GmbH, Heidelberg, FRG) was carefully introduced under a layer of 10 ml of freshly prepared human citrate blood and the mixture was then centrifuged at 400×g (Minifuge®, Heraeus, Hanau, FRG) at 20° C. for 40 minutes. The cell fraction, showing as a white ring in the phase boundary, was withdrawn with the aid of a syringe, diluted 1:1 (v/v) with PM-16 buffer (Serva, Heidelberg, FRG) and centrifuged again as above for 10 minutes. The […] was taken up in 10 ml of RPMI 1640 buffer (Gibco, Berlin, FRG), to which 300 mg/I of L-glutamine, 25 mmol/l of HEPES, […] of penicillin had been added beforehand. The cell suspension, comprising about 90% lymphocytes and 10% monocytes, was adjusted to about 5 million cells/ml with the aid of a cell counter (type IT, Coulter Diagnostics, Krefeld, FRG). The cell viability was checked with the aid of the known lactate dehydrogenase method before and after the inhibition experiments. No change in the viability was found here.
The synthesis and release of cellular IL-1β was induced by adding a solution of […] of lipopolysaccharide (Salmonella abortus equi, Sigma GmbH, Deisenhofen, FRG) in 0.01 ml of dimethyl sulfoxide/water (1:10, v/v) to 0.48 ml of the cell fraction described above. At the same time, a solution of the test substance in 0.01 ml was added to the cell fraction, and the mixture was left in a commercially available incubator at 37° C. for 20 hours. After the sample had been cooled to 0° C., it was centrifuged in a bench centrifuge for 1 minute and in each case 0.025 ml aliquots of the supernatant were investigated specifically for their IL-1β content with the aid of a commercially available “sandwich” enzyme immunoassay kit (Biosource, Ratingen, FRG), in accordance with the manufacturer's instructions. The control values, without addition of the test preparation, were determined and set at 100%. In particular, any influence of dimethyl sulfoxide on the IL-1β level was excluded by corresponding comparison measurements.
The concentration range was chosen here such that it comprised the ranges from 0% inhibition (that is to say without addition of the test substance) to at least 80% inhibition. The test substance concentration which led to 50% inhibition of the release of IL-1β was determined by extrapolation from the dose-effect relationship determined by graph or mathematically.
IC50 value has been shown in Table 2 as micromoles/liter for the corresponding compounds of the formula (I) according to the invention.

The structures appear in SMILES notation. pIC50: −log10 of the molar value.

Consider `CN(c1ccccc1)S(=O)(=O)c1nc(-c2ccccc2)ns1` [Example 1], for which the pIC50 (usually −log10 of the IC50, conventionally taken in molar units) was 4.96. Turning to `O=S(=O)(c1nc(-c2ccccc2)ns1)N1CCOCC1` [Example 2], the pIC50 is 5.52.

Regarding `O=S(=O)(Nc1ccc(Cl)cc1)c1nc(-c2ccccc2)ns1` [Example 3], the pIC50 was 4.47. The figure for `O=S(=O)(NCc1ccccc1)c1nc(-c2ccccc2)ns1` [Example 4] is 4.82. For `O=S(=O)(NC1CCCCC1)c1nc(-c2ccccc2)ns1` [Example 5], the negative logarithm of the IC50 (pIC50) is 5.22.

`COC(=O)[C@H](C)NS(=O)(=O)c1nc(-c2ccccc2)ns1` [Example 7] showed a negative logarithm of the IC50 (pIC50) of 5.70. Compound `CN1CCN(S(=O)(=O)c2nc(-c3ccccc3)ns2)CC1` [Example 8] showed a pIC50 of 5.40. In turn, `O=C(O)C1CCC(CNS(=O)(=O)c2nc(-c3ccccc3)ns2)CC1` (centres unmarked) [Example 9] showed a pIC50 of 5.70. Compound `O=S(=O)(c1nc(-c2ccccc2)ns1)N1CCN(c2ccc(Cl)cc2)CC1` [Example 10] gave a pIC50 of 5.00.

In the case of `CCOC(=O)C1CCN(S(=O)(=O)c2nc(-c3ccccc3)ns2)CC1` [Example 12], the pIC50 is 5.70. `O=C1CCN(S(=O)(=O)c2nc(-c3ccccc3)ns2)CC1` [Example 13] had a negative-log IC50 (pIC50) of 5.70. The result for `O=C(O)C1CCN(S(=O)(=O)c2nc(-c3ccccc3)ns2)CC1` [Example 14] reads 5.70; that for `CC(=O)N1CCN(S(=O)(=O)c2nc(-c3ccccc3)ns2)CC1` [Example 15], 5.70.

Compound `C[C@H](NS(=O)(=O)c1nc(-c2ccccc2)ns1)C(=O)O` [Example 16, (S)-2-(3-Phenyl-(1,2,4)-thiadiazole-5-sulfonylamino)propionic acid] gave a negative logarithm of the IC50 (pIC50) of 5.00. Against the preceding compound, the pIC50 is 0.70 log units lower.

Regarding `C[C@H](NS(=O)(=O)c1nc(-c2ccccc2)ns1)C(=O)OCc1ccccc1` [Example 17], the negative logarithm of the IC50 (pIC50) is 5.00. With `O=C(O)[C@@H]1CCCN1S(=O)(=O)c1nc(-c2ccccc2)ns1` [Example 18], the negative logarithm of the IC50 (pIC50) is 5.10. This pIC50 and that of the compound before are within 0.2 log units of each other. `O=C(O)CNS(=O)(=O)c1nc(-c2ccccc2)ns1` [Example 19] gave a pIC50 of 4.40.

`O=C(c1ccc(F)cc1)C1CCN(S(=O)(=O)c2nc(-c3ccccc3)ns2)CC1` [Example 20] showed a pIC50 of 4.92. This pIC50 is 0.52 log units higher than that of the compound before. `O=C(O)CCNS(=O)(=O)c1nc(-c2ccccc2)ns1` [Example 21] gave a negative-log IC50 (pIC50) of 5.22. `O=C(O)[C@H](Cc1ccccc1)NS(=O)(=O)c1nc(-c2ccccc2)ns1` [Example 22] had a pIC50 of 4.70.

In the case of `CC(C)OC(=O)[C@H](C)NS(=O)(=O)c1nc(-c2ccccc2)ns1` [Example 23], the negative logarithm of the IC50 (pIC50) is 5.22. Compound `COc1ccc(-c2nsc(S(=O)(=O)N3CCN(C)CC3)n2)cc1Cl` [Example 24] had a negative logarithm of the IC50 (pIC50) of 4.70. This pIC50 is 0.52 log units lower than that of the compound before. The compound `CN1CCN(S(=O)(=O)c2nc(-c3ccc(Cl)cc3)ns2)CC1` [Example 25] showed a negative-log IC50 (pIC50) of 5.70.
